Test results: BigSolDB 2.1

O=C(Nc1ccccc1-c1ccc(Cl)cc1)c1cccnc1Cl
solubility (mole fraction) (in ethanol, 288.15 K): 0.00163
solubility (mole fraction) (in ethanol, 293.15 K): 0.00194
solubility (mole fraction) (in ethanol, 298.15 K): 0.0023
solubility (mole fraction) (in ethanol, 303.15 K): 0.00282
solubility (mole fraction) (in ethanol, 308.15 K): 0.00346
solubility (mole fraction) (in ethanol, 313.15 K): 0.00428
solubility (mole fraction) (in ethyl acetate, 288.15 K): 0.0076
solubility (mole fraction) (in ethyl acetate, 293.15 K): 0.00879
solubility (mole fraction) (in ethyl acetate, 298.15 K): 0.0102
solubility (mole fraction) (in ethyl acetate, 303.15 K): 0.0117
solubility (mole fraction) (in ethyl acetate, 308.15 K): 0.0141
solubility (mole fraction) (in ethyl acetate, 313.15 K): 0.0168
solubility (mole fraction) (in isopropanol, 288.15 K): 0.000816
solubility (mole fraction) (in isopropanol, 293.15 K): 0.000983
solubility (mole fraction) (in isopropanol, 298.15 K): 0.00124
solubility (mole fraction) (in isopropanol, 303.15 K): 0.00162
solubility (mole fraction) (in isopropanol, 308.15 K): 0.002
solubility (mole fraction) (in isopropanol, 313.15 K): 0.00251
solubility (mole fraction) (in methanol, 288.15 K): 0.00186
solubility (mole fraction) (in methanol, 293.15 K): 0.0022
solubility (mole fraction) (in methanol, 298.15 K): 0.0026
solubility (mole fraction) (in methanol, 303.15 K): 0.00315
solubility (mole fraction) (in methanol, 308.15 K): 0.00394
solubility (mole fraction) (in methanol, 313.15 K): 0.0047
solubility (mole fraction) (in n-propyl acetate, 288.15 K): 0.00718
solubility (mole fraction) (in n-propyl acetate, 293.15 K): 0.00822
solubility (mole fraction) (in n-propyl acetate, 298.15 K): 0.00943
solubility (mole fraction) (in n-propyl acetate, 303.15 K): 0.0112
solubility (mole fraction) (in n-propyl acetate, 308.15 K): 0.0135
solubility (mole fraction) (in n-propyl acetate, 313.15 K): 0.016
